Experimental data taken from PubChem BioAssay (NCI).
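Method: 48-hour compound exposure of cells in 96-well plates, five concentrations, linear interpolation of endpoints. GI50 marks 50% less growth. TGI marks complete inhibition of growth.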

Tests used:
Assay in all cases: NCI tumour cell line growth inhibition, 48 h
SK-MEL-28 melanoma = tested on: SK-MEL-28 melanoma
MALME-3M melanoma = tested on: MALME-3M melanoma
NCI-H460 lung = tested on: NCI-H460 lung
CAKI-1 renal = tested on: CAKI-1 renal
HT29 colon = tested on: HT29 colon
RXF 393 renal = tested on: RXF 393 renal
ACHN renal = tested on: ACHN renal
K-562 leukemia = tested on: K-562 leukemia
SW-620 colon = tested on: SW-620 colon
RPMI-8226 leukemia = tested on: RPMI-8226 leukemia

SMILES: CC(=O)[CH-]C(=O)c1ccccc1.CC(=O)[CH-]C(=O)c1ccccc1.CC1(C)OCC(C2OC3OC(C)(C)OC3C2[O-])O1.CC[O-].[Ti+4] (stereo not given)
- GI50 (SK-MEL-28 melanoma): 11.6 µM
- TGI (SK-MEL-28 melanoma): 25.1 µM
- GI50 (MALME-3M melanoma): 13.4 µM
- TGI (MALME-3M melanoma): 27.7 µM
- GI50 (NCI-H460 lung): 10.8 µM
- TGI (NCI-H460 lung): 24.8 µM
- GI50 (CAKI-1 renal): 22.8 µM
- TGI (CAKI-1 renal): 40.9 µM
- GI50 (HT29 colon): 13.7 µM
- TGI (HT29 colon): 29.3 µM
- GI50 (RXF 393 renal): 3.36 µM
- TGI (RXF 393 renal): 14.9 µM
- GI50 (ACHN renal): 17.3 µM
- TGI (ACHN renal): 35.8 µM
- GI50 (K-562 leukemia): 15.3 µM
- TGI (K-562 leukemia): 62.6 µM
- GI50 (SW-620 colon): 15.6 µM
- TGI (SW-620 colon): 44.5 µM

SMILES: Cc1cccc(C)c1N1C(=O)C(=O)C(c2nc3ccccc3s2)/C(=N/NC(=O)NN)C1=O (stereo not given)
- TGI (SK-MEL-28 melanoma): > 100 µM
- TGI (MALME-3M melanoma): > 100 µM
- TGI (NCI-H460 lung): > 100 µM
- TGI (CAKI-1 renal): > 100 µM
- TGI (HT29 colon): > 100 µM
- TGI (RXF 393 renal): > 100 µM
- TGI (ACHN renal): > 100 µM
- TGI (SW-620 colon): > 100 µM

SMILES: COc1ccc(C2Oc3c(c(O)cc4c3[C@H](c3ccc(O)cc3O)[C@H](O)C(c3ccc(O)c(O)c3)O4)C[C@@H]2O)cc1O (stereo not given in full)
- TGI (RPMI-8226 leukemia): > 100 µM
- TGI (MALME-3M melanoma): > 100 µM
- TGI (NCI-H460 lung): > 100 µM
- TGI (CAKI-1 renal): > 100 µM
- TGI (HT29 colon): > 100 µM
- TGI (RXF 393 renal): > 100 µM
- TGI (ACHN renal): > 100 µM
- TGI (K-562 leukemia): > 100 µM
- TGI (SW-620 colon): > 100 µM

SMILES: Cc1c2ccncc2c(C)c2c1[nH]c1ccc(O)c(OCC(F)(F)F)c12
- TGI (SK-MEL-28 melanoma): 22.4 µM
- TGI (RPMI-8226 leukemia): 5.95 µM
- TGI (MALME-3M melanoma): 22.3 µM
- TGI (NCI-H460 lung): 10.5 µM
- TGI (CAKI-1 renal): 19.6 µM
- TGI (HT29 colon): > 7.5 µM
- TGI (K-562 leukemia): 33.9 µM
- TGI (SW-620 colon): 19.2 µM

SMILES: O=C1/C(=C/c2ccc([N+](=O)[O-])cc2)COc2ccc(O)cc21
- GI50 (SK-MEL-28 melanoma): 5.11 µM
- TGI (SK-MEL-28 melanoma): 22.9 µM
- GI50 (RPMI-8226 leukemia): 0.326 µM
- TGI (RPMI-8226 leukemia): 1.65 µM
- GI50 (MALME-3M melanoma): 13.9 µM
- TGI (MALME-3M melanoma): 75.2 µM
- GI50 (NCI-H460 lung): 9.03 µM
- TGI (NCI-H460 lung): > 100 µM
- GI50 (CAKI-1 renal): 3.7 µM
- TGI (CAKI-1 renal): 19.3 µM
- GI50 (RXF 393 renal): 2.45 µM
- TGI (RXF 393 renal): 17.7 µM
- GI50 (ACHN renal): 2.02 µM
- TGI (ACHN renal): 4.12 µM
- GI50 (K-562 leukemia): 2.28 µM
- TGI (K-562 leukemia): > 100 µM
- GI50 (SW-620 colon): 1.5 µM
- TGI (SW-620 colon): 3.3 µM

SMILES: O=C(/C=C/c1cccc(O)c1)c1cccc(-n2cc(-c3ccc4ccccc4c3)[nH]c2=O)c1
- GI50 (SK-MEL-28 melanoma): 3.79 µM
- TGI (SK-MEL-28 melanoma): 12.4 µM
- GI50 (RPMI-8226 leukemia): 1.67 µM
- TGI (RPMI-8226 leukemia): 6.91 µM
- GI50 (MALME-3M melanoma): 2.08 µM
- TGI (MALME-3M melanoma): 6.37 µM
- GI50 (NCI-H460 lung): 1.67 µM
- TGI (NCI-H460 lung): 3.19 µM
- GI50 (HT29 colon): 1.53 µM
- TGI (HT29 colon): 2.87 µM
- GI50 (RXF 393 renal): 1.41 µM
- TGI (RXF 393 renal): 3.07 µM
- GI50 (ACHN renal): 1.57 µM
- TGI (ACHN renal): 3.08 µM
- GI50 (K-562 leukemia): 1.43 µM
- TGI (K-562 leukemia): 4.88 µM
- GI50 (SW-620 colon): 0.223 µM
- TGI (SW-620 colon): 0.605 µM

SMILES: O=C(CC1(O)C(=O)Nc2c(Cl)ccc(Cl)c21)c1ccc(Cl)cc1Cl (stereo not given)
- TGI (SK-MEL-28 melanoma): 38.8 µM
- TGI (RPMI-8226 leukemia): 43.7 µM
- TGI (MALME-3M melanoma): 34.9 µM
- TGI (NCI-H460 lung): 38.3 µM
- TGI (CAKI-1 renal): 64.2 µM
- TGI (HT29 colon): 33.3 µM
- TGI (RXF 393 renal): 42.3 µM
- TGI (ACHN renal): 30.5 µM
- TGI (SW-620 colon): 56.6 µM

SMILES: C=CC1=C(C)C2=NC1=CC1=NC(=CC3=C(C)C4=C(O)[C@H](C(=O)OC)C(=C5NC(=C2)[C@@H](C)[C@@H]5CCC(=O)O)C4=N3)C(CC)=C1C
- TGI (SK-MEL-28 melanoma): 3.54 µM
- TGI (MALME-3M melanoma): > 100 µM
- TGI (NCI-H460 lung): 13.8 µM
- TGI (CAKI-1 renal): > 100 µM
- TGI (RXF 393 renal): 9.1 µM
- TGI (ACHN renal): 7.21 µM
- TGI (K-562 leukemia): 6.24 µM
- TGI (SW-620 colon): 10.8 µM

SMILES: CC(C)(C)c1ccc(OC2CCO2)cc1 (stereo not given)
- TGI (SK-MEL-28 melanoma): > 100 µM
- TGI (RPMI-8226 leukemia): 47 µM
- TGI (MALME-3M melanoma): > 100 µM
- TGI (NCI-H460 lung): 53.3 µM
- TGI (CAKI-1 renal): > 100 µM
- TGI (HT29 colon): 50.9 µM
- TGI (ACHN renal): > 100 µM
- TGI (K-562 leukemia): 39.1 µM
- TGI (SW-620 colon): 30.9 µM
